Values quoted from earlier work in patent US12364661B2, “Deformable nano-scale vehicles (DNVS) for trans-blood brain barrier, trans-mucosal, and transdermal drug delivery” (The Regents of the University of California, priority 2015, dated 2025).

Conditions: measured experimentally

log P: 0.4
Structure (SMILES): CCCN[C@H]1CCc2nc(N)sc2C1 [Pramipexole, pramipexole]
